The assay addresses T1, calcium receptor (CasR) (Homo sapiens, UniProt P41180).
T1 construct: expressed in transfected cells; host or cells: HEK 293
T1 sequence (P41180 20-1078): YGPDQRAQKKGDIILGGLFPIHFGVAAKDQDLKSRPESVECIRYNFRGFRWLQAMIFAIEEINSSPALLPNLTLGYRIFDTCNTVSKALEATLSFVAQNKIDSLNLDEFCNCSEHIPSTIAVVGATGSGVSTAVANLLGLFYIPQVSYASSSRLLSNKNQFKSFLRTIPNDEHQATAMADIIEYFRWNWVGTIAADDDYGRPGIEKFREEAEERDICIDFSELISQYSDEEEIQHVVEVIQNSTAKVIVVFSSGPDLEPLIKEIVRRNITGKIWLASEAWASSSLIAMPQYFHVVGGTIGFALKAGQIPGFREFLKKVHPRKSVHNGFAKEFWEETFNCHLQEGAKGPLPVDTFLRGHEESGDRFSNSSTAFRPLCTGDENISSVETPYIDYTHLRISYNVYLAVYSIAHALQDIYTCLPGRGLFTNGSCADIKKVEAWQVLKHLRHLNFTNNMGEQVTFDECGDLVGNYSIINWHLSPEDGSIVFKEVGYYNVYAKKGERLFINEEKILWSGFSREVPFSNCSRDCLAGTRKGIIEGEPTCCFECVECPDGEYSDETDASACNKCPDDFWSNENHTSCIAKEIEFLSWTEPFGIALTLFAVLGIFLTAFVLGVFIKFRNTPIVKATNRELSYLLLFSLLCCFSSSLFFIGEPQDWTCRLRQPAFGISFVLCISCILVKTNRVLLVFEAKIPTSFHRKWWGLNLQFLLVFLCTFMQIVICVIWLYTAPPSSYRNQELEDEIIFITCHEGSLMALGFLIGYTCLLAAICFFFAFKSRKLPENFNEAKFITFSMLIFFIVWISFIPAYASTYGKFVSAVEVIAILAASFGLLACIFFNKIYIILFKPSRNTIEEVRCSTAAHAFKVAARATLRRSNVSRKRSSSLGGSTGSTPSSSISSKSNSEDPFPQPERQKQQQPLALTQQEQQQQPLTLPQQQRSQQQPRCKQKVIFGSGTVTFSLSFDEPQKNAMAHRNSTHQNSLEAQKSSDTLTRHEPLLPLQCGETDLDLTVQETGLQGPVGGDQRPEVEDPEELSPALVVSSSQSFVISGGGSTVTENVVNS
Put plainly: FLIPR Assay for Evaluating the Potency and Selectivity of Test Compounds. To be noted: HEK 293 cells expressing CasR; 30 minutes pre-incubation; stimulation by 1.7 mM Ca2+; read 42 seconds after stimulation. The class given is cell-based. From the text:
FLIPR Assay for Evaluating the Potency and Selectivity of Test Compounds
Human kidney cell (HEK 293) expressing the calcium receptor (CasR) are used to detect antagonists of the receptor using Fluorometric imaging plate reader (FLIPR, Molecular Devices, Sunnyvale Calif.). Receptor activation by extracellular calcium results in the release of calcium from intracellular stores into the cytosol. A fluorescent indicator (Fluo-4) is internalized by the cells from growth media and interacts with calcium released into the cytosol to provide a means of quantifying intracellular Ca^2+ levels and receptor agonism/antagonism. Fluorescence intensity is detected by the FLIPR CCD camera and traced as a function of time. Potential antagonists are identified by their ability to decrease this fluorescent response.
Prior to the addition of test compound cells are washed with a 10 mM HEPES buffer solution. The test compound, for example the compound of Example 1, is added at various doses (from 1 µM to 3 nM) and pre-incubated with cells for 30 minutes followed by stimulation of the CasR by the addition of 1.7 mM Ca^2+. IC50 values are based on the ability of the cells to inhibit the Ca^2+ induced increase in intracellular Ca^2+. Fluorescence signal is read 42 seconds after the stimulation of the CasR by the addition of 1.7 mM Ca^2+.
The following table provides FLIPR IC50 data for the specified Examples. The IC50s are reported as micromolar concentration with n being the number of times the particular compound was assayed.

Some results are limits rather than exact numbers.

Take `CC(Cc1ccccc1F)n1c(-c2ncccc2O)nc2ccnc(C(F)(F)F)c2c1=O` (single isomer, unassigned) [Example 6a, 2-(3-Hydroxy-pyridin-2-yl)-3-(1-methyl-2-(2-fluorophenyl)ethyl)-5-trifluoromethyl-3H-pyrido[4,3-d]pyrimidin-4-one]: the concentration for half-maximal inhibition (IC50) – broadly, the midpoint of a concentration-inhibition curve – is 50 nM.
Take `O=c1c2c(C(F)(F)F)nccc2nc(-c2ccccc2O)n1CCc1ccccc1` [Example 1, 2-(2-Hydroxy-phenyl)-3-phenethyl-5-trifluoromethyl-3H-pyrido[4,3-d]pyri-midin-4-one]: the half-inhibitory concentration (IC50) worked out at 50 nM.
As for `COc1c(F)cccc1CCn1c(-c2ncccc2O)nc2ccnc(C(F)(F)F)c2c1=O` [Example 45, 3-(3-fluoro-2-methoxyphenethyl)-2-(3-hydroxypyridin-2-yl)-5-(trifluoromethyl)pyrido[4,3-d]pyrimidin-4(3H)-one], the IC50 amounted to 1870 nM.
Consider `O=c1c2c(OC3CCC3)nccc2nc(-c2ccccc2O)n1CCc1ccccc1` [Example 33, 5-Cyclobutyloxy-2-(2-hydroxy-phenyl)-3-phenethyl-3H-pyrido[4,3-d]pyrimidin-4-one], for which the half-maximal inhibitory concentration (IC50) turned out to be 520 nM.
In the case of `O=c1c2c(C(F)(F)F)nccc2nc(-c2cscn2)n1CCC1CCCCC1` [Example 61, 3-(2-cyclohexylethyl)-2-(thiazol-4-yl)-5-(trifluoromethyl)pyrido[4,3-d]pyrimidin-4(3H)-one], the IC50 came to 500 nM.
Consider `O=c1c2c(Cc3ccccc3)nccc2nc(-c2ccccc2O)n1CCc1ccccc1` [Example 25, 5-Benzyl-2-(2-hydroxy-phenyl)-3-phenethyl-3H-pyrido[4,3-d]pyrimidin-4-one], for which the concentration for half-maximal inhibition (IC50) came out at 3010 nM.
The result for `CN1CCN(c2nccc3nc(-c4ccccc4O)n(CCc4ccccc4)c(=O)c23)CC1` [Example 19, 2-(2-Hydroxy-phenyl)-5-(4-methyl-piperazin-1-yl)-3-phenethyl-3H-pyrido[4,3-d]pyrimidin-4-one] reads more than 100000 nM; that for `O=c1c2c(-c3ccccc3)nccc2nc(-c2ccccc2O)n1CCc1ccccc1` [Example 24, 2-(2-Hydroxy-phenyl)-3-phenethyl-5-phenyl-3H-pyrido[4,3-d]pyrimidin-4-one], 2600 nM.
The result for `O=c1c2c(C(F)(F)F)nccc2nc(-c2cccc(F)c2O)n1CCc1cccc(F)c1` [Example 11, 2-(3-Fluoro-2-hydroxy-phenyl)-3-[2-(3-fluoro-phenyl)-ethyl]-5-trifluoromethyl-3H-pyrido[4,3-d]pyrimidin-4-one] reads 460 nM; that for `O=c1c2c(C(F)(F)F)nccc2nc(-c2ncccc2O)n1CCc1ccccc1` [Example 3, 2-(3-Hydroxy-pyridin-2-yl)-3-phenethyl-5-trifluoromethyl-3H-pyrido[4,3-d]pyrimidin-4-one], 390 nM; that for `CC(C)Nc1nccc2nc(-c3ccccc3O)n(CCc3ccccc3)c(=O)c12` [Example 17, 2-(2-Hydroxy-phenyl)-5-isopropylamino-3-phenethyl-3H-pyrido[4,3-d]pyrimidin-4-one], 11000 nM.
In the case of `O=c1c2c(C(F)(F)F)nccc2nc(-c2cscn2)n1CCc1ccccc1F` [Example 56, 3-(2-fluorophenethyl)-2-(thiazol-4-yl)-5-(trifluoromethyl)pyrido[4,3-d]pyrimidin-4(3H)-one], the IC50 was 1540 nM.
To `O=c1c2c(-c3ccc(N4CCCC4)nc3)nccc2nc(-c2ccccc2O)n1CCc1ccccc1` [Example 29, 5-(6-pyrrolidine-5-pyridin-3-yl)-2-(2-hydroxy-phenyl)-3-phenethyl-3H-pyrido[4,3-d]pyrimidin-4-one] belongs 490 nM; to `O=c1c2c(C(F)(F)F)nccc2nc(-c2ncccc2O)n1CCC1CCCCO1` (racemic) [Example 49, (R, S)-2-(3-hydroxypyridin-2-yl)-3-(2-(tetrahydro-2H-pyran-2-yl)ethyl)-5-(trifluoromethyl)pyrido[4,3-d]pyrimidin-4(3H)-one], 480 nM.
`C[C@H](CC1CCCCC1)n1c(-c2ncccc2O)nc2ccnc(C(F)(F)F)c2c1=O` [Example 48a, (R)-3-(1-cyclohexylpropan-2-yl)-2-(3-hydroxypyridin-2-yl)-5-(trifluoromethyl)pyrido[4,3-d]pyrimidin-4(3H)-one]: the IC50 was determined as 160 nM.
Turning to `O=c1c2c(C(F)(F)F)nccc2nc(-c2ncccc2O)n1CCc1ccc(F)c(F)c1` [Example 13, 3-[2-(3,4-Difluoro-phenyl)-ethyl]-2-(3-hydroxy-pyridin-2-yl)-5-trifluoromethyl-3H-pyrido[4,3-d]pyrimidin-4-one], the half-inhibitory concentration (IC50) came out at 70 nM.
The result for `COc1cccc(CCn2c(-c3ncccc3O)nc3ccnc(C(F)(F)F)c3c2=O)c1F` [Example 70, 3-(2-fluoro-3-methoxyphenethyl)-2-(3-hydroxypyridin-2-yl)-5-(trifluoromethyl)pyrido[4,3-d]pyrimidin-4(3H)-one] reads 61900 nM; that for `CC(Cc1ccccc1F)n1c(-c2ncccc2O)nc2ccnc(C(F)(F)F)c2c1=O` (racemic) [Example 6, (R, S)-2-(3-Hydroxy-pyridin-2-yl)-3-(1-methyl-2-(2-fluorophenyl)ethyl)-5-trifluoromethyl-3H-pyrido[4,3-d]pyrimidin-4-one], 50 nM; that for `Cc1nccc2nc(-c3ccccc3O)n(CCc3ccccc3)c(=O)c12` [Example 26, 2-(2-Hydroxy-phenyl)-5-methyl-3-phenethyl-3H-pyrido[4,3-d]pyrimidi-4-one], 2990 nM.
To `O=c1c2c(C(F)(F)F)nccc2nc(-c2ncccc2O)n1CCc1ccc(F)cc1F` [Example 14, 3-[2-(2,4-Difluoro-phenyl)-ethyl]-2-(3-hydroxy-pyridin-2-yl)-5-trifluoromethyl-3H-pyrido[4,3-d]pyrimidin-4-one] belongs 170 nM; to `C[C@@H](Cc1ccccc1)n1c(-c2ccccc2O)nc2ccnc(C(F)(F)F)c2c1=O` [Example 4b, (S)-2-(2-Hydroxy-phenyl)-3-(1-methyl-2-phenyl-ethyl)-5-trifluoromethyl-3H-pyrido[4,3-d]pyrimidin-4-one], 160 nM.
Regarding `O=c1c2c(C(F)(F)F)nccc2nc(-c2ccccc2C(F)F)n1CCc1ccccc1` [Example 79, 2-(2-(difluoromethyl)phenyl)-3-phenethyl-5-(trifluoromethyl)pyrido[4,3-d]pyrimidin-4(3H)-one], the 50% inhibitory concentration (IC50) was 390 nM.
Consider `C[C@H](Cc1ccccc1)n1c(-c2ncc[nH]2)nc2ccnc(C(F)(F)F)c2c1=O` [Example 51, (R)-2-(1H-imidazol-2-yl)-3-(1-phenylpropan-2-yl)-5-(trifluoromethyl)pyrido[4,3-d]pyrimidin-4(3H)-one], for which the IC50 was determined as 110 nM.
Turning to `C[C@H](Cc1ccc(F)c(F)c1)n1c(-c2ncccc2O)nc2ccnc(C(F)(F)F)c2c1=O` [Example 37a, (R)-3-(1-(3,4-difluorophenyl)propan-2-yl)-2-(3-hydroxypyridin-2-yl) 5-(trifluoromethyl)pyrido[4,3-d]pyrimidin-4(3H)-one], the half-maximal inhibitory concentration (IC50) came out at 8 nM.
Consider `O=c1c2c(C(F)(F)F)nccc2nc(-c2ncccc2C(F)F)n1CCc1ccccc1` [Example 80, 2-(3-(difluoromethyl)pyridin-2-yl)-3-phenethyl-5-(trifluoromethyl)pyrido[4,3-d]pyrimidin-4(3H)-one], for which the 50% inhibitory concentration (IC50) was determined as 300 nM.
As to `O=c1c2c(C(F)(F)F)nccc2nc(-c2ncccc2O)n1C1CCCCC1` [Example 74, 3-cyclohexyl-2-(3-hydroxypyridin-2-yl)-5-(trifluoromethyl)pyrido[4,3-d]pyrimidin-4(3H)-one], the IC50 was found to be 47800 nM.

These data come from patent US7829572B2 (Pfizer Inc, priority 2006, dated 2010).
